The record followed here is ChEMBL document CHEMBL4311992, “Discovery of 3-(((9H-purin-6-yl)amino)methyl)-4,6-dimethylpyridin-2(1H)-one derivatives as novel tubulin polymerization inhibitors for treatment of cancer” (Eur J Med Chem, 2019).

Data set [1] concerns Serine/threonine-protein kinase Sgk2 (Homo sapiens), Q9HBY8 [S416D]. Description: Inhibition of recombinant human SGK2 S416D mutant (54 to end residues) assessed as residual activity at 10 uM using GRPRTSSFAEGKK as substrate measured after 40 mins in presence of [gamma33P]ATP by scintillation counting method.
The target in data set [2] is Mitogen-activated protein kinase 12 (Homo sapiens) (UniProt P53778). In words: Inhibition of recombinant full-length human SAPK3 assessed as residual activity at 10 uM using myelin basic protein as substrate measured after 40 mins in presence of [gamma33P]ATP by scintillation counting method.
The target of data set [3] is Serine/threonine-protein kinase/endoribonuclease IRE1 (Homo sapiens) (UniProt O75460). Description: Inhibition of recombinant human IRE1 (465 to end residues) assessed as residual activity at 10 uM using myelin basic protein as substrate measured after 40 mins in presence of [gamma33P]ATP by scintillation counting method.
For data set [4], the species on record is Mus musculus. In words: Inhibition of recombinant full-length mouse PI3K p110alpha/p85alpha E542K mutant assessed as residual activity at 10 uM using phosphatidylinositol-4, 5-bisphosphate as substrate measured after 40 mins by HTRF assay.
Data set [5] has as its target Inhibitor of nuclear factor kappa-B kinase subunit beta (Homo sapiens) (UniProt O14920). Description: Inhibition of recombinant full-length human IKKbeta assessed as residual activity at 10 uM using peptide substrate measured after 40 mins in presence of [gamma33P]ATP by scintillation counting method.
In data set [6] the target is Inhibitor of nuclear factor kappa-B kinase subunit alpha (Homo sapiens) (UniProt O15111). In words: Inhibition of recombinant full-length human IKKalpha ([…]) assessed as residual activity at 10 uM using peptide substrate measured after 40 mins in presence of [gamma33P]ATP by scintillation counting method.
The target of data set [7] is Tyrosine-protein kinase Fes/Fps (Homo sapiens) (UniProt P07332). Description: Inhibition of recombinant human FES (2 to end residues) assessed as residual activity at 10 uM using poly(Glu, Tyr) 4:1 as substrate measured after 40 mins in presence of [gamma33P]ATP by scintillation counting method.
For data set [8], the system named is Receptor tyrosine-protein kinase erbB-2 (Homo sapiens), P04626 [G778D]. In words: Inhibition of recombinant human ErbB2 G778D mutant (676 to end residues) assessed as residual activity at 10 uM using poly (Glu, Tyr) 4:1 as substrate measured after 40 mins in presence of [gamma33P]ATP by scintillation counting method.
Data set [9] concerns the target Activin receptor type-1 (Homo sapiens) (UniProt Q04771). In words: Inhibition of recombinant human ALK2 (142 to end residues) assessed as residual activity at 10 uM using casein as substrate measured after 40 mins in presence of [gamma33P]ATP by scintillation counting method.
The subject of data set [10] is HCT-116. In words: Induction of apoptosis in human HCT116 cells assessed as increase in cleaved caspase9 expression measured after 48 hrs by Western blot analysis. Format: functional, cell-based.
For data set [11], the system named is Serine/threonine-protein kinase Chk2 (Homo sapiens), O96017 [R145W]. Description: Inhibition of recombinant human CHK2 R145W mutant (5 to end residues) assessed as residual activity at 10 uM using KKKVSRSGLYRSPSMPENLNRPR as substrate measured after 40 mins in presence of [gamma33P]ATP by scintillation counting method.
The target of data set [12] is Ephrin type-A receptor 4 (Homo sapiens) (UniProt P54764). In words: Inhibition of recombinant human EphA4 (601 to 892 residues) assessed as residual activity at 10 uM using poly(Glu, Tyr) 4:1 as substrate measured after 40 mins in presence of [gamma33P]ATP by scintillation counting method.
In data set [13] the target is Tyrosine-protein kinase Lyn (Homo sapiens) (UniProt P07948). Description: Inhibition of recombinant full-length human Lyn assessed as residual activity at 10 uM using poly(Glu, Tyr) 4:1 as substrate measured after 40 mins in presence of [gamma33P]ATP by scintillation counting method.
For data set [14], the target named is Serine/threonine-protein kinase 26 (Homo sapiens) (UniProt Q9P289). Description: Inhibition of recombinant human MST4 (4 to 304 residues) assessed as residual activity at 10 uM using RLGRDKYKTLRQIRQ as substrate measured after 40 mins in presence of [gamma33P]ATP by scintillation counting method.
Data set [15] has as its target Eukaryotic translation initiation factor 2-alpha kinase 3 (Homo sapiens) (UniProt Q9NZJ5). Description: Inhibition of recombinant human PEK (536 to end residues) assessed as residual activity at 10 uM using RSRSRSRSRSRSRSR as substrate measured after 40 mins in presence of [gamma33P]ATP by scintillation counting method.
For data set [16], the system named is Phosphorylase b kinase gamma catalytic chain, liver/testis isoform (Homo sapiens), P15735 [F290L]. In words: Inhibition of recombinant human PhKgamma2 F290L mutant (1 to 301 residues) assessed as residual activity at 10 uM using KKLNRTLSFAEPG as substrate measured after 40 mins in presence of [gamma33P]ATP by scintillation counting method.
Data set [17] concerns the target Serine/threonine-protein kinase PLK3 (Homo sapiens) (UniProt Q9H4B4). In words: Inhibition of recombinant human Plk3 (19 to 301 residues) assessed as residual activity at 10 uM using casein as substrate measured after 40 mins in presence of [gamma33P]ATP by scintillation counting method.
Data set [18] concerns the target SRSF protein kinase 2 (Homo sapiens) (UniProt P78362). In words: Inhibition of human SRPK2 (46 to end residues) using RSRSRSRSRSRSRSR as substrate measured after 40 mins in presence of [gamma33P]ATP by scintillation counting method. Details: scale not given: the % may be the effect or the level left.
Data set [19] has as its target Serine/threonine-protein kinase 32B (Homo sapiens) (UniProt Q9NY57). Description: Inhibition of recombinant full-length human STK32B assessed as residual activity at 10 uM using casein as substrate measured after 120 mins in presence of [gamma33P]ATP by scintillation counting method.
Data set [20] addresses Phosphatidylinositol 4-phosphate 5-kinase type-1 gamma (Homo sapiens) (UniProt O60331). Description: Inhibition of recombinant full-length human PIP5K1gamma assessed as residual activity at 10 uM using phosphatidylinositol 4-phosphate as substrate measured after 40 mins by HTRF assay.
The target of data set [21] is PI3-kinase p110-alpha/p85-alpha (Homo sapiens) (UniProt P27986+P42336). Description: Inhibition of recombinant full-length human PI3K p110alpha/p85alpha assessed as residual activity at 10 uM using phosphatidylinositol-4, 5-bisphosphate as substrate measured after 40 mins by fluorescence assay. Format: protein-complex assay.
A short description of data set [22]: Toxicity in nude BALB/c mouse assessed as change in uric acid level at 40 to 80 mg/kg, po once daily for 4 weeks measured post-last dose. Format: organism-based. To be noted: in vivo, 672 h.
The nature of data set [23]: Toxicity in nude BALB/c mouse assessed as change in platelet level at 40 to 80 mg/kg, po once daily for 4 weeks measured post-last dose. Format: organism-based. To be noted: in vivo, 672 h.
The test system of data set [24] is SW-620. Description: Induction of apoptosis in human SW620 cells assessed as late apoptotic cells at 25 nM measured after 48 hrs by Annexin V-FITC/propidium iodide staining-based flow cytometry (reference value: 1.8%). Format: functional.

Chain of Ephrin type-A receptor 4 (Homo sapiens) (P54764 whole entry, the tested form may be a part): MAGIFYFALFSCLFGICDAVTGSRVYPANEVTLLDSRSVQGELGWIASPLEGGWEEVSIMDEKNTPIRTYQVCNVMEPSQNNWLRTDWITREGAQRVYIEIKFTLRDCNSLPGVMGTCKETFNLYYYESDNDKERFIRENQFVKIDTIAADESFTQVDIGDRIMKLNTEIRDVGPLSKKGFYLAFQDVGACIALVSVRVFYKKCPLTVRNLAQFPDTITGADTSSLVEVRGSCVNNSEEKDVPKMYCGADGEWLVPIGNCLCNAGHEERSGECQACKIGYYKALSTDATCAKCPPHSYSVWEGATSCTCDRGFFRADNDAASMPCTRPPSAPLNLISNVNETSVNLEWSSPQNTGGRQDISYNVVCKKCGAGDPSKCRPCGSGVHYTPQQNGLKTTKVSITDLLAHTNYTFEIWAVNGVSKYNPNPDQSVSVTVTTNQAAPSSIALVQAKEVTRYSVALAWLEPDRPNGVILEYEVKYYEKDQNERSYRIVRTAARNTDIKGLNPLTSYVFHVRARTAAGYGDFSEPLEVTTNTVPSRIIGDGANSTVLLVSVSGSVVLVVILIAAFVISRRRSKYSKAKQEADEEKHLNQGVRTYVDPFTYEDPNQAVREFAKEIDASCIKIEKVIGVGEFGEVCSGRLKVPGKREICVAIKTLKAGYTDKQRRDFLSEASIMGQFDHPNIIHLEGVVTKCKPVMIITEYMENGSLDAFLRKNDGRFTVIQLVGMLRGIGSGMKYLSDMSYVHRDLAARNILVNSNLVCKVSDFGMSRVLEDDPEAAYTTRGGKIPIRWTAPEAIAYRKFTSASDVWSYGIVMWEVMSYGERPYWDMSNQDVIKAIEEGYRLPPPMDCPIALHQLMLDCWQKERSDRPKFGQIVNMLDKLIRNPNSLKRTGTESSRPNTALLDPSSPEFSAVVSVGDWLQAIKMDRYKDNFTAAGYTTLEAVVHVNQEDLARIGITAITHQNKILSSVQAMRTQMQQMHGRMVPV
Chain of Inhibitor of nuclear factor kappa-B kinase subunit alpha (Homo sapiens) (O15111 whole entry): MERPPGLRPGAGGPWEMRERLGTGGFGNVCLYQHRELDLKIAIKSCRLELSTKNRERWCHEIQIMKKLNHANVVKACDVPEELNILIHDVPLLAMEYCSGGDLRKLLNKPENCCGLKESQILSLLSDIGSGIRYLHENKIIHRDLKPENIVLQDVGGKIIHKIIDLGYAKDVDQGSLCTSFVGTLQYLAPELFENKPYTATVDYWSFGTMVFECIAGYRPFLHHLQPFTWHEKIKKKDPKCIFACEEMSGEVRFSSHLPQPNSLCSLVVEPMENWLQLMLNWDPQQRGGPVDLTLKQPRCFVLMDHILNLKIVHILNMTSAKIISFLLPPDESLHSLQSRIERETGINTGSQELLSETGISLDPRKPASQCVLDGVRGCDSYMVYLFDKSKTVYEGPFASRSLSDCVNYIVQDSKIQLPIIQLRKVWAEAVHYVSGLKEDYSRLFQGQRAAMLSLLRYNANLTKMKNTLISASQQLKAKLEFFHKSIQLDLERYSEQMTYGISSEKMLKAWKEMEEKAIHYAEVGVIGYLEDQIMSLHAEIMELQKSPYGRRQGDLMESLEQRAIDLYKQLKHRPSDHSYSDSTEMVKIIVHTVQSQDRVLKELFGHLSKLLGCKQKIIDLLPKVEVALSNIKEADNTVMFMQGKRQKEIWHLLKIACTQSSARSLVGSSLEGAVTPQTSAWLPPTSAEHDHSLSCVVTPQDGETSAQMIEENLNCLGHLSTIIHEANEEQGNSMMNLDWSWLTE
Chain of Activin receptor type-1 (Homo sapiens) (Q04771 whole entry): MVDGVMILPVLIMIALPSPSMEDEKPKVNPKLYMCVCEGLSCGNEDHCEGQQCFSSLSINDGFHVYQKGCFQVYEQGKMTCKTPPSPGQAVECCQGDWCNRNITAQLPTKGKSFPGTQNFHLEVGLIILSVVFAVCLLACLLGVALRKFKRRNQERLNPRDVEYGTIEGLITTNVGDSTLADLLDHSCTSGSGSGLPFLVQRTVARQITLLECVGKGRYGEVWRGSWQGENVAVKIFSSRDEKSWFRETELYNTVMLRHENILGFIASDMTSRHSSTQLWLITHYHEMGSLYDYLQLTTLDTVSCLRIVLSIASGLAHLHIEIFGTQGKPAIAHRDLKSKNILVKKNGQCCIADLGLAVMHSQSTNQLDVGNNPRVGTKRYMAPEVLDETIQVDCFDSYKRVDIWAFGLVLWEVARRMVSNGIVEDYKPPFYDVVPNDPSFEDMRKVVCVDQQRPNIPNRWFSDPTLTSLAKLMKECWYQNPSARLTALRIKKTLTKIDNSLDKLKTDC
Chain of Serine/threonine-protein kinase PLK3 (Homo sapiens) (Q9H4B4 whole entry, looked up, the tested form may be a part): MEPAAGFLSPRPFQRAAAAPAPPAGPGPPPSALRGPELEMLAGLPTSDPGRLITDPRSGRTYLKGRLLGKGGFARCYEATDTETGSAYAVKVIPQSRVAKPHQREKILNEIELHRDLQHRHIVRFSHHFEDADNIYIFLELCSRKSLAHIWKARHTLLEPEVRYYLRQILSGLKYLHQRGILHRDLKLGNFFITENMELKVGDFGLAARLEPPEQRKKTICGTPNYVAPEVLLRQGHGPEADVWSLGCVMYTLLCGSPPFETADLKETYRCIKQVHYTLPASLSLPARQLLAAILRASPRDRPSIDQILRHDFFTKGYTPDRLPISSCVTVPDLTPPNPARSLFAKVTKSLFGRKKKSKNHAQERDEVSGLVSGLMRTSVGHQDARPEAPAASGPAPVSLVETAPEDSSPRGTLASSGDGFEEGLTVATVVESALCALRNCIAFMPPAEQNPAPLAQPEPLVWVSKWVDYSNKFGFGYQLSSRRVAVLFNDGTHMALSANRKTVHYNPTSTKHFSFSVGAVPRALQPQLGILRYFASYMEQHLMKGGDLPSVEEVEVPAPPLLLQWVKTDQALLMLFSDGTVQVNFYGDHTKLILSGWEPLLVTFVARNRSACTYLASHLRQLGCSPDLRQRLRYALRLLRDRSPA
Chain of Eukaryotic translation initiation factor 2-alpha kinase 3 (Homo sapiens) (Q9NZJ5 whole entry, the tested form may be a part, canonical isoform): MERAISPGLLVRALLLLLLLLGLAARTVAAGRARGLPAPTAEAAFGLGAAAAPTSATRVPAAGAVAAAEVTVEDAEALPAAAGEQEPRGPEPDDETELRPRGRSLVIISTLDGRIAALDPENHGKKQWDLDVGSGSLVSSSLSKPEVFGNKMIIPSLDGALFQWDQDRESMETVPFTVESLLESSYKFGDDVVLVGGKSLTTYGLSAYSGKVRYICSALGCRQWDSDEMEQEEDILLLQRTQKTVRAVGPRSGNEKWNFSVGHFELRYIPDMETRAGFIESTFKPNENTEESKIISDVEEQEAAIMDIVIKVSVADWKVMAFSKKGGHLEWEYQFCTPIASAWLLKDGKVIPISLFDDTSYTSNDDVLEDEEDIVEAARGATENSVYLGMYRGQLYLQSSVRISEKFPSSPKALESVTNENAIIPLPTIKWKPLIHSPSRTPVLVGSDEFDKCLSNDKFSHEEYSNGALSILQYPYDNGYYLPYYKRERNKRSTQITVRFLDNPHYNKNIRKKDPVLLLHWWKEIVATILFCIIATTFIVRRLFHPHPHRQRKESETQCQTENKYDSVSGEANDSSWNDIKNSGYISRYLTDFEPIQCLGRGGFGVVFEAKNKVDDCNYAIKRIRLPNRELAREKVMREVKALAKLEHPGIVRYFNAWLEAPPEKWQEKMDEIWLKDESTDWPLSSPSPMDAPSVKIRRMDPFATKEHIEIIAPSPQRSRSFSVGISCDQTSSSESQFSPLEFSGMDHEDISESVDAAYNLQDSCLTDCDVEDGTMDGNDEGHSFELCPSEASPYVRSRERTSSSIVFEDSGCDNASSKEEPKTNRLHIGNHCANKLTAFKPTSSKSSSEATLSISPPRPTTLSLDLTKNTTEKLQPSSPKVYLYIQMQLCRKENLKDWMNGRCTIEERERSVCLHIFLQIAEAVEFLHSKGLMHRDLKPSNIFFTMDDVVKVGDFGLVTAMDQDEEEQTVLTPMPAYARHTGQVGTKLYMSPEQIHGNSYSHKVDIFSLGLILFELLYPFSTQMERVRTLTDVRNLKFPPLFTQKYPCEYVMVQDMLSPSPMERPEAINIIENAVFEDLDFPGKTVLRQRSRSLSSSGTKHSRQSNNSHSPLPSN
Chain of Mitogen-activated protein kinase 12 (Homo sapiens) (P53778 whole entry): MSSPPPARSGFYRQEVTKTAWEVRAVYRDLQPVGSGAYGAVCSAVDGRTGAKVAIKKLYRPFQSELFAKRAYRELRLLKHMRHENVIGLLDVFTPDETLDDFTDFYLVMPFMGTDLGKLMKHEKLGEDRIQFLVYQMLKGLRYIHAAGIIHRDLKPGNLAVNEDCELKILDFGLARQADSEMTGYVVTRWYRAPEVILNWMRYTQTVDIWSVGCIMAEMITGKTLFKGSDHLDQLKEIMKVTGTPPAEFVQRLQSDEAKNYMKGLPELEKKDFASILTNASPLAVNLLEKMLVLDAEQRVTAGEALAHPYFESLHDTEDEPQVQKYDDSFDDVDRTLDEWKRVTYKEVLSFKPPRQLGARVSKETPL
Chain of Serine/threonine-protein kinase Sgk2 (Homo sapiens), Q9HBY8 [S416D] (Q9HBY8 1-367 with tags or gaps S416D): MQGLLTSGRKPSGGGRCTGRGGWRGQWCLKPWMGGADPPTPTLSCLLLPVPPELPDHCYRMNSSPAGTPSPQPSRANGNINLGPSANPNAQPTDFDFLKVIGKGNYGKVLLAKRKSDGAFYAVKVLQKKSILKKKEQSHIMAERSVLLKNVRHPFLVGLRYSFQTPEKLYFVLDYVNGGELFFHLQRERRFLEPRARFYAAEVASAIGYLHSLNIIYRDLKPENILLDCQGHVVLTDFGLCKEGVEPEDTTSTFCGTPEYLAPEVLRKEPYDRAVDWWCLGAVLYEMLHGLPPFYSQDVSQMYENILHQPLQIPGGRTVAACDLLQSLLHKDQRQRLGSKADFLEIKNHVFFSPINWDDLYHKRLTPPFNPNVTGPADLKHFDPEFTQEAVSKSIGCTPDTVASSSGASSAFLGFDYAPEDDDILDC

For `Cc1cc(C)c(CNc2nc(Cl)nc3c2ncn3C2CCCC2)c(=O)[nH]1`, the Activity in data set [1] came to 112%; in data set [2], 96.5%; in [3], 101%; in data set [4], 95%; in [5] it was 102%; in [6], 88.5%. The Activity was 100% in data set [7]; 109% in data set [8]; 106% in data set [9]; “Dose-dependent effect” in data set [10]; 103% in data set [11]; 100% in [12]. The Activity in [13] stood at 119%; in data set [14], 132%; in [15], 116%; in data set [16], 92%; in data set [17], 99.5%; in data set [18] it was 106%. The Activity in data set [19] was 98%; in data set [20] it was 99.5%; in [21], 99.5%; in data set [22] it was “Non-Toxic”; in [23], “Non-Toxic”; in [24], 4.23%.
